From patent US8524699B2, “Substituted dihydropyrazolones and use thereof as HIF-prolyl-4-hydroxylase inhibitors” (Bayer Intellectual Property GmbH, priority 2006, dated 2013)
Structures can show the parent of a compound that is named as a salt.

Target: HIF prolyl hydroxylase
Assay: Inhibition of the activity of HIF prolyl hydroxylase (VBC complex binding to hydroxylated peptide substrate)
Type: biochemical
Settings: cell lysate containing prolyl hydroxylase
Procedure: Hydroxylated HIF bonds specifically to the von Hippel-Lindau protein-elongin B-elongin C complex (VBC complex). This interaction occurs only if HIF is hydroxylated on a conserved prolyl radical. It is the basis for the biochemical determination of HIF prolyl hydroxylase activity. The test is carried out as described [Oehme F., Jonghaus W., Narouz-Ott L., Huetter J., Flamme I., Anal. Biochem. 330 (1), 74-80 (2004)]:
A clear 96-well microtiter plate coated with NeutrAvidin HBC (Pierce) is incubated with blocker casein for 30 minutes. The plate is then washed three times with 200 μl each time of wash buffer (50 mM Tris, pH 7.5, 100 mM NaCl, 10% (v/v) blocker casein, 0.05% (v/v) Tween 20) per well. The peptide biotin-DLDLEMLAPYIPMDDDFQL (Eurogentec, 4102 Seraing, Belgium) is added in a concentration of 400 nM in 100 μl wash buffer. This peptide serves as a substrate for the prolyl hydroxylation and is bonded to the microtiter plate. After incubation for 60 minutes, the plate is washed three times with wash buffer, incubated with 1 mM biotin in blocker casein for 30 minutes and then washed again three times with wash buffer.
To carry out the prolyl hydroxylase reaction, the peptide substrate bonded to the plate is incubated with a cell lysate containing prolyl hydroxylase for 1 to 60 minutes. The reaction takes place in 100 μl reaction buffer (20 mM Tris, pH 7.5, 5 mM KCl, 1.5 mM MgCl2, 1 μM-1 mM 2-oxoglutarate, 10 μM FeSO4, 2 mM ascorbate) at room temperature. The reaction mixture moreover contains various concentrations of the prolyl hydroxylase inhibitor to be tested. The test substance is preferably, but not exclusively, employed at concentrations of between 1 nM and 100 μM. The reaction is stopped by washing the plate three times with wash buffer.
For quantitative determination of the prolyl hydroxylation, a fusion protein which contains both thioredoxin from E. coli and the VBC complex in 80 μl bonding buffer (50 mM Tris, pH 7.5, 120 mM NaCl) is added. After 15 minutes, 10 μl of a solution of polyclonal anti-thioredoxin antibodies from rabbit in bonding buffer are added. After a further 30 minutes, 10 μl of a solution of anti-rabbit immunoglobulin coupled to horseradish peroxidase in bonding buffer are added. After incubation at room temperature for 30 minutes, the plate is washed three times with wash buffer in order to remove non-bonded VBC complex and antibodies. To determine the amount of bonded VBC complex, the plate is incubated with TMB for 15 minutes. The color reaction is ended by addition of 100 μl 1 M sulfuric acid. The amount of bonded VBC complex is determined by measurement of the optical density at 450 nm. It is proportional to the amount of hydroxylated proline in the peptide substrate.
Alternatively, a VBC complex coupled to europium (Perkin Elmer) can be used for detection of the prolyl hydroxylation. In this case, the amount of bonded VBC complex is determined by the fluorescence with respect to time. The use of VBC complex labeled with [^35S]-methionine is moreover possible. For this, the radioactively labeled VBC complex can be prepared by in vitro transcription-translation in reticulocyte lysate.
Representative IC50 values for the embodiment examples are reproduced in the following Table 1: […]

Compound	IC50 [nM]
Cc1cc(C)n(-c2cc(-n3[nH]cc(-c4cccnc4)c3=O)ncn2)n1 [Example 3]	700
O=c1c(-c2cccnc2)c[nH]n1-c1nc2ccccc2s1 [Example 6]	2800
O=c1c(-c2cccnc2)c[nH]n1-c1nnc(-c2ccc(Cl)cc2)s1 [Example 7]	880
O=c1c(-c2ccc(Cl)nc2)c[nH]n1-c1cc(N2CCOCC2)ncn1 [Example 16]	480
O=c1c(-c2cccnc2)c[nH]n1-c1cc(N2CCOCC2)ncn1 [Example 18, 2-(6-Morpholin-4-yl-pyrimidin-4-yl)-4-pyridin-3-yl-1,2-dihydro-3H-pyrazol-3-one hydrochloride]	180

The next lines start with the values.

IC50 [nM]	Compound
2700	O=c1c(-c2cccnc2)c[nH]n1-c1ccc(-c2ccccc2)nn1 [Example 22, 2-(6-Phenylpyridazin-3-yl)-4-pyridin-3-yl-1,2-dihydro-3H-pyrazol-3-one hydrochloride]
4000	CN(C)CCOc1cc(-n2[nH]cc(-c3cccnc3)c2=O)ncn1 [Example 26, 2-{6-[2-(Dimethylamino)ethoxy]pyrimidin-4-yl}-4-pyridin-3-yl-1,2-dihydro-3H-pyrazol-3-one hydrochloride]
890	COCCN1CCN(c2cc(-n3[nH]cc(-c4cccnc4)c3=O)ncn2)CC1 [Example 28, 2-{6-[4-(2-Methoxyethyl)piperazin-1-yl]pyrimidin-4-yl}-4-pyridin-3-yl-1,2-dihydro-3H-pyrazol-3-one dihydrochloride]
1120	N#Cc1cncc(-c2c[nH]n(-c3cc(N4CCCCC4)ncn3)c2=O)c1 [Example 44, 5-[3-oxo-2-(6-piperidin-1-ylpyrimidin-4-yl)-2,3-dihydro-1H-pyrazol-4-yl]pyridine-3-carbonitrile hydrochloride]
930	O=c1c(-c2cccnc2)c[nH]n1-c1cnccn1 [Example 46, 2-Pyrazin-2-yl-4-pyridin-3-yl-1,2-dihydro-3H-pyrazol-3-one hydrochloride]
1700	CCN(CC)CCCCCCNc1cc(-n2[nH]cc(-c3cccnc3)c2=O)ncn1 [Example 55, 2-(6-{[6-(Diethylamino)hexyl]amino}pyrimidin-4-yl)-4-pyridin-3-yl-1,2-dihydro-3H-pyrazol-3-one]
